These molecules were tested against human PD-L1 / Human PD-1 (Homo sapiens (Human), UniProt Q9NZQ7) (assay: Enzyme-Linked Immunosorbent Assay (ELISA), PD-1/PD-L1 binding). Details: plate-coated human PD-L1, biotinylated human PD-1.
Outline: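 Compound dilutions (1:5 series) competed with 0.3 μg/mL biotin-labelled human PD-1 for PD-L1 immobilised at […], for 1 h at 37 °C. Read-out was A450 after streptavidin-HRP and a 20 min TMB reaction, stopped with 2 N H2SO4.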

Chain of human PD-L1 / Human PD-1 (Q9NZQ7 19-239): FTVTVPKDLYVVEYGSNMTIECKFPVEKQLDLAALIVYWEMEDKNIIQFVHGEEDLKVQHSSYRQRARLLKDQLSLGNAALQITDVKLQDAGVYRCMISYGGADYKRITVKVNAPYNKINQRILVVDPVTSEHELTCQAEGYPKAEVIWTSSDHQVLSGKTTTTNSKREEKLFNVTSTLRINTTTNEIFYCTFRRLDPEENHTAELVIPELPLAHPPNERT

Question: For Cc1c(OCCCN2CCC(O)CC2)cccc1-c1cccc2c1CCC2Oc1cc(OCc2cncc(C#N)c2)c(CN[C@H](C(=O)O)[C@@H](C)O)cc1Cl (stereo partly drawn), which IC50 is on record?
Answer: Its IC50 is less than 5 nM.

Question: Which IC50 does the source give for Cc1c(OCCCN2CCC(O)CC2)cccc1-c1cccc2c1CC[C@@H]2Oc1cc(OCc2cncc(C#N)c2)c(CN[C@H](C(=O)OC(C)(C)C)[C@@H](C)O)cc1Cl here?
Answer: Its IC50 is 5 to 500 nM.

Question: How did the IC50 turn out when N#Cc1cncc(COc2cc(O[C@H]3CCc4c(-c5cccc(OCCCN6CCC(O)CC6)c5Cl)cccc43)c(Cl)cc2CN[C@@H]2CCCC[C@@H]2O)c1 was run?
Answer: Its IC50 is less than 5 nM.

Question: With N#Cc1cncc(COc2cc(O[C@H]3CCc4c(-c5cccc(OCCCN6CCC(O)CC6)c5Cl)cccc43)c(Cl)cc2CNC(CO)CO)c1 as the molecule, how does the IC50 read?
Answer: The IC50 was less than 5 nM.

Question: How did the IC50 turn out when Cc1c(OCCCNC[C@@H](O)CO)cccc1-c1cccc2c1CC[C@@H]2Oc1cc(OCc2cncc(C#N)c2)c(CN[C@H](C(=O)O)[C@@H](C)O)cc1Cl was run?
Answer: Its IC50 is less than 5 nM.

Question: For C[C@@](CO)(NCc1cc(Cl)c(O[C@H]2CCc3c(-c4cccc(OCCCN5CC(O)C5)c4Cl)cccc32)cc1OCc1cncc(C#N)c1)C(=O)O, which IC50 is on record?
Answer: Its IC50 is less than 5 nM.

Question: Cc1c(OCCCN2CCC(O)CC2)cccc1-c1cccc2c1CC[C@H]2Oc1cc(OCc2cncc(C#N)c2)c(CN[C@H](C(=O)O)[C@@H](C)O)cc1Cl was tested. Which IC50 did it give?
Answer: Its IC50 is less than 5 nM.

Question: With Cc1c(OCCCN2CCC(O)CC2)cccc1-c1cccc2c1CC[C@@H]2Oc1cc(OCCCN2CC[C@H](O)C2)c(CN[C@@H]2CCCC[C@@H]2O)cc1Cl as the molecule, how does the IC50 read?
Answer: Its IC50 is less than 5 nM.

Question: For CCOc1cc(O[C@H]2CCc3c(-c4cccc(OCCCN5CC(O)C5)c4C)cccc32)c(Cl)cc1CN[C@@H](CO)C(=O)O, which IC50 is on record?
Answer: Its IC50 is less than 5 nM.

Question: For CCOc1cc(O[C@H]2CCc3c(-c4cccc(OCCCN5CCC(F)CC5)c4C)cccc32)c(Cl)cc1CN[C@@H](CO)C(=O)O, which IC50 is on record?
Answer: The IC50 was less than 5 nM.

Question: CCOc1cc(O[C@H]2CCc3c(-c4cccc(OCCCN5CC6(CC(O)C6)C5)c4C)cccc32)c(Cl)cc1CN[C@@H](CO)C(=O)O was tested. Which IC50 did it give?
Answer: Its IC50 is less than 5 nM.

Question: With CCOc1cc(O[C@H]2CCc3c(-c4cccc(OCCCN5CCC5(C)C)c4C)cccc32)c(Cl)cc1CN(CC)CCC(=O)OC as the molecule, how does the IC50 read?
Answer: The IC50 was 5 to 500 nM.

Question: Which IC50 does the source give for CCOc1cc(O[C@H]2CCc3c(-c4cccc(OCCCN5CCC5(C)C)c4C)cccc32)c(Cl)cc1CN(C)CCc1nnn[nH]1 here?
Answer: The IC50 was 5 to 500 nM.

Question: With CCOc1cc(O[C@H]2CCc3c(-c4cccc(OCCCN5CCC5(C)C)c4C)cccc32)c(Cl)cc1CN(C)CCn1nn[nH]c1=O as the molecule, how does the IC50 read?
Answer: Its IC50 is 5 to 500 nM.

Question: With CCOc1cc(O[C@H]2CCc3c(-c4cccc(OCCCN5CCC5(C)C)c4C)cccc32)c(Cl)cc1CN(C)CCC(=O)OC(C)C as the molecule, how does the IC50 read?
Answer: The IC50 was 5 to 500 nM.

Question: How did the IC50 turn out when CCOc1cc(O[C@H]2CCc3c(-c4cccc(OCCCN5CCC5(C)C)c4C)cccc32)c(Cl)cc1CN(CC)CCC(=O)O was run?
Answer: The IC50 was 5 to 500 nM.

Question: CCOc1cc(O[C@H]2CCc3c(-c4cccc(OCCCN5CCC5(C)C)c4C)cccc32)c(Cl)cc1CN(C)CCCC(=O)OC was tested. Which IC50 did it give?
Answer: The IC50 was 5 to 500 nM.

Question: Which IC50 does the source give for CCOc1cc(O[C@H]2CCc3c(-c4cccc(OCCCN5CCC5(C)C)c4C)cccc32)c(Cl)cc1CN(C)CCCC(=O)O here?
Answer: The IC50 was less than 5 nM.

Question: How did the IC50 turn out when CCOc1cc(O[C@H]2CCc3c(-c4cccc(OCCCN5CCC5(C)C)c4C)cccc32)c(Cl)cc1CN(C)CC(C)(C)C(=O)O was run?
Answer: Its IC50 is 5 to 500 nM.

Question: Which IC50 does the source give for CCOc1cc(O[C@H]2CCc3c(-c4cccc(OCCCN5CCC5(C)C)c4C)cccc32)c(Cl)cc1CN(C)C(C)CC(=O)O (stereo partly drawn) here?
Answer: The IC50 was 5 to 500 nM.

Question: With CCOc1cc(O[C@H]2CCc3c(-c4cccc(OCCCN5CCC5(C)C)c4C)cccc32)c(Cl)cc1CNCCS(=O)(=O)O as the molecule, how does the IC50 read?
Answer: Its IC50 is 5 to 500 nM.

Question: CCOc1cc(O[C@@H]2CCc3c(-c4cccc(OCCCN5CCC5(C)C)c4C)cccc32)c(Cl)cc1CN(C)CCC(=O)O was tested. Which IC50 did it give?
Answer: The IC50 was 500 to 20000 nM.

Question: CCOc1cc(O[C@H]2CCc3c(-c4cccc(OCCCN5CCC5(C)C)c4C)cccc32)c(Cl)cc1CN(C)CC(C)C(=O)OC (stereo partly drawn) was tested. Which IC50 did it give?
Answer: Its IC50 is 500 to 20000 nM.

Question: How did the IC50 turn out when CCOc1cc(O[C@H]2CCc3c(-c4cccc(OCCCN5CCC5(C)C)c4C)cccc32)c(Cl)cc1CN(CCC(=O)O)C(C)C was run?
Answer: Its IC50 is 5 to 500 nM.

Question: Which IC50 does the source give for CCOc1cc(O[C@H]2CCc3c(-c4cccc(OCCCN5CCC5(C)C)c4C)cccc32)c(Cl)cc1CN(C)CC(C)C(=O)O (stereo partly drawn) here?
Answer: Its IC50 is 5 to 500 nM.

Question: With CCOc1cc(O[C@H]2CCc3c(-c4cccc(OCCCN5CCC5(C)C)c4C)cccc32)c(Cl)cc1CN1CC[C@@H](C(=O)OC)C1 as the molecule, how does the IC50 read?
Answer: Its IC50 is 5 to 500 nM.

Question: For CCOc1cc(O[C@H]2CCc3c(-c4cccc(OCCCN5CCC5(C)C)c4C)cccc32)c(Cl)cc1CN1CC[C@H](C(=O)OC)C1, which IC50 is on record?
Answer: The IC50 was 5 to 500 nM.

Question: For Cc1c(OCCCN2CCC(F)CC2)cccc1-c1cccc2c1CC[C@@H]2Oc1cc(OCc2cncc(C#N)c2)c(CNCCS(=O)(=O)O)cc1Cl, which IC50 is on record?
Answer: The IC50 was less than 5 nM.

Question: For CCOc1cc(O[C@H]2CCc3c(-c4cccc(OCCCN5CCC5(C)C)c4C)cccc32)c(Cl)cc1CN1CC[C@@H](C(=O)O)C1, which IC50 is on record?
Answer: Its IC50 is 5 to 500 nM.

Question: CCOc1cc(O[C@H]2CCc3c(-c4cccc(OCCCN5CCC5(C)C)c4C)cccc32)c(Cl)cc1CNCCB(O)O was tested. Which IC50 did it give?
Answer: The IC50 was 5 to 500 nM.

Question: CCOc1cc(O[C@H]2CCc3c(-c4cccc(OCCCN5CCC5(C)C)c4C)cccc32)c(Cl)cc1CN(C)CCCCC(=O)OC was tested. Which IC50 did it give?
Answer: Its IC50 is 5 to 500 nM.

Question: Which IC50 does the source give for CCOc1cc(O[C@H]2CCc3c(-c4cccc(OCCCN5CCC5(C)C)c4C)cccc32)c(Cl)cc1CNCCCS(=O)(=O)O here?
Answer: The IC50 was 5 to 500 nM.

Question: Which IC50 does the source give for CCOc1cc(O[C@H]2CCc3c(-c4cccc(OCCCN5CCC5(C)C)c4C)cccc32)c(Cl)cc1CN(C)CCCCC(=O)O here?
Answer: The IC50 was 5 to 500 nM.

Question: For N#Cc1cncc(COc2cc(O[C@H]3CCc4c(-c5cccc(OCCCN6CCC(F)CC6)c5Cl)cccc43)c(Cl)cc2CN[C@@H]2CCOC[C@H]2F)c1 [drawing 223], which IC50 is on record?
Answer: The IC50 was 5 to 500 nM.

Question: How did the IC50 turn out when N#Cc1cncc(COc2cc(O[C@H]3CCc4c(-c5cccc(OCCCN6CCC(F)CC6)c5Cl)cccc43)c(Cl)cc2CN[C@@H]2CCOC[C@H]2F)c1 [drawing 224] was run?
Answer: Its IC50 is 5 to 500 nM.

Question: Cc1c(OCCCN2CCC(F)CC2)cccc1-c1cccc2c1CC[C@@H]2Oc1cc(OCc2cc(C#N)cc(C#N)c2)c(CN[C@H]2CCNC2=O)cc1Cl [drawing 306] was tested. Which IC50 did it give?
Answer: Its IC50 is 5 to 500 nM.

Question: Which IC50 does the source give for Cc1c(OCCCN2CCC(F)CC2)cccc1-c1cccc2c1CC[C@@H]2Oc1cc(OCc2cc(C#N)cc(C#N)c2)c(CN[C@H]2CCNC2=O)cc1Cl [drawing 345] here?
Answer: The IC50 was 5 to 500 nM.

Question: With CCOc1cc(O[C@H]2CCc3c(-c4cccc(OCCCN5CCCC5(C)C)c4C)cccc32)c(Cl)cc1CNC[C@@H]1CCC(=O)N1 [drawing 377] as the molecule, how does the IC50 read?
Answer: Its IC50 is 5 to 500 nM.

Question: With CCOc1cc(O[C@H]2CCc3c(-c4cccc(OCCCN5CCCC5(C)C)c4C)cccc32)c(Cl)cc1CNC[C@@H]1CCC(=O)N1 [drawing 395] as the molecule, how does the IC50 read?
Answer: Its IC50 is less than 5 nM.
